# Experimental data as given in patent US4628115A, “Substituted 4-acetyl-3-hydroxyphenoxy alkanoic acids” (Hoffmann-La Roche Inc., priority 1985, dated 1986).
# pIC50: −log10 of the molar value. Like-named read-outs stand apart in the source and are kept apart here.
# Key:
# [1] = system: SRS-A induced constriction of the guinea pig ileum; assay: Guinea Pig Ileum, In Vitro (SRS-A antagonism); type: cell-based; conditions: Cavia porcellus
# Experimental: The guinea pig ileum bioassay system has been described by Orange and Austen, Adv. Immunol. […] A 1.5 cm segment is removed from animals weighing 300-400 g. and suspended in an organ bath containing 10 ml. of Tyrodes solution with 10^-6 M atropine sulfate and 10^-6 M pyrilamine maleate. […] The SRS-A utilized in this screen is obtained by challenging chopped lung fragments from actively sensitized guinea pigs with egg albumin, in vitro. A dose-response curve to SRS-A challenge is established for the ileum. […] The drug concentration which inhibits, by 50%, the SRS-A induced constriction of the guinea pig ileum is determined.
# leukotriene E4 = assay: Guinea Pig Bronchoconstriction, In Vivo (leukotriene E4 i.v. challenge, drug i.v.); design: species or system guinea pig (Hartley strain, male); conditions: 10 mg/kg i.v., maximally constrictory dose of leukotriene E4 i.v.
# Experimental: Male guinea pigs (Hartley strain) weighing 300 to 450 grams are anesthetized with urethane (2 g/Kg) intraperitoneally and a polyethylene cannula is inserted into the jugular vein for intravenous drug administration. Tracheal pressure is recorded from a cannula inserted in the trachea and connected to a Statham pressure transducer. Respiration is paralyzed with succinyl choline (1.2 mg/kg, i.v.) and the animals are mechanically respirated ([…] rodent respirator) at 40 breaths/minute and 2.5 cc tidal volume. The minutes thereafter, propranolol (0.1 mg/kg, i.v.) is administered. Five minutes later, the animals are pretreated intravenously for 30 seconds (at 10 mg/kg) with test drug or control vehicle. The animals are subsequently challenged with a maximally constrictory dose of leukotriene E4 also administered intravenously. The change (cm H2 O) between pre and peak ventilatory pressure readings is averaged calculated from the following formula: [formula]
# LTE4 [2] = assay: Aerosol Test (LTE4-induced bronchoconstriction, drug by inhalation); type: in vivo, guinea pig (Hartley strain, male); conditions: 1% (W/V) aerosol solution, five minute exposure, LTE4 i.v. challenge
# Experimental: Male guinea pigs (Hartley strain) weighing 300 to 500 g are anesthetized with urethane (2 g/kg) intraperitoneally and a polyethylene cannula is inserted into the jugular vein for test compound administration. Tracheal pressure is recorded from a cannula inserted in the trachea and connected to a Statham pressure transducer. After surgical preparation of the animals, a period of time is allowed for pulmonary functions to stabilize. For testing purposes, drugs are administered according to the following protocol. Propranolol (0.1 mg/kg) is administered intravenously while the animals breathed spontaneously. Five minutes thereafter, the animals are exposed for a five minute period to a 1% (W/V) aerosol solution of test compound (adjusted to an alkaline pH where necessary for compound solubilization) or to distilled water of the appropriate pH (for control purposes). A Monaghan (Model 750) ultrasonic nebulizer is used to administer all compounds by inhalation. Aqueous solutions are prepared fresh and introduced into the chamber of the nebulizer. The output of the nebulizer is made available to the animal by directing a bias flow of aerosol through a y tube connected to the tracheal cannula. At the end of the exposure period, the animals are paralyzed with succinylcholine (1.2 mg/kg, i.v.) and mechanically respirated (Harvard rodent respirator) at 40 breaths/min and 2.5 cc tidal volume. […]
# LTE4 [3] = assay: Rat Skin Permeability, in Vivo (LTE4-induced wheal); conditions: 10 mg/kg i.v., LTE4 intradermal, 30 min, 5 animals
# Experimental: In this model the ability of LTE4 to increase vascular permeability in rat skin was utilized. Anesthetized rats, pretreated for 30 minutes with an antihistamine, pyrilamine maleate, (50 mg/kg i.p.) and a serotonin antagonist, methylsergide maleate (4 mg/kg i.p.), were injected intradermally with a dose of LTE4 which gave a maximum wheal (in 0.05 ml saline). After introduction of test drug (at 10 mg/kg, i.v.) the animals were immediately treated intravenously with Evans blue dye i.v. (0.5%) in the tail vein resulting in the formation of a skin wheal. Thirty minutes later the animals were sacrificed and the skin wheal size was measured. The average response in 5 animals (4 intradermal injections per animal) treated with test compound was compared to that obtained in a similar group of control animals to determine the percent inhibition by the drug. A representative compound of the present invention, i.e., 6-(4-acetyl-3-hydroxy-2-propylphenoxy)hexanoic acid, caused a 35% reduction in skin wheal when tested at 10 mg/kg i.v.
# [4] = guinea pig ileum, SRS-A challenge at EC50, 37° C., Table I, read-out: In vitro SRSA Antagonism Test, Guinea Pig Ileum IC50
"pIC50 [1, 4]",Structure (SMILES),further results
5.30,"CCCc1c(OCCOCCC(=O)O)ccc(C(C)=O)c1O [(CH2)2 O(CH2)2, 3-[2-(4-Acetyl-3-hydroxy-2-propylphenoxy)ethoxy]propanoic acid semihydrate]",–
5.00,"CCCc1c(OCCC(=O)O)ccc(C(C)=O)c1O [(CH2)2, 3-(4-Acetyl-3-hydroxy-2-propylphenoxy)propanoic acid]",–
6.00,"CCCc1c(OCCCC#CC(=O)O)ccc(C(C)=O)c1O [(CH2)3 CC, 6-(4-Acetyl-3-hydroxy-2-propylphenoxy)-2-hexynoic acid]",–
5.30,"CCCc1c(OCCCCC(=O)O)ccc(C(C)=O)c1O [(CH2)4, 5-(4-Acetyl-3-hydroxy-2-propylphenoxy)pentanoic acid]",–
6.00,"CCCc1c(OCCCCCC(=O)O)ccc(C(C)=O)c1O [(CH2)5, 6-(4-Acetyl-3-hydroxy-2-propylphenoxy)hexanoic acid]",inhibition of the bronchoconstriction (LTE4 [2]): 36%; inhibition of leukotriene E4 bronchoconstriction (leukotriene E4): 73%; reduction in skin wheal (LTE4 [3]): 35%
5.30,"CCCc1c(OCCCCCCC(=O)O)ccc(C(C)=O)c1O [(CH2)6, 7-(4-Acetyl-3-hydroxy-2-propylphenoxy)heptanoic acid]",–
6.00,"CCCc1c(OCC#CCCCC(=O)O)ccc(C(C)=O)c1O [CH2 CC(CH2)3, 7-(4-Acetyl-3-hydroxy-2-propylphenoxy)-5-heptynoic acid]",–

# The remaining lines, values behind:
Structure (SMILES),"pIC50 [1, 4]",further results
"CCCc1c(OCC(O)COc2ccc3c(=O)cc(C(=O)O)oc3c2CCC)ccc(C(C)=O)c1O (centres unmarked) [7-[3-(4-acetyl-3-hydroxy-2-propylphenoxy)-2-hydroxypropoxy]-4-oxo-8-propyl-4 H-1-benzopyran-2-carboxylic acid, reference compound]",–,pIC50 ([1]; read-out: IC50 (standard SRS-A antagonist)): 7.46; inhibition of leukotriene E4 bronchoconstriction (leukotriene E4): 98%
"CCCc1c(OCCOCCOCCOCCC(=O)O)ccc(C(C)=O)c1O [(CH2)2 O(CH2)2 O(CH2)2 O(CH2)2, 3-[2-[2-[2-(4-Acetyl-3-hydroxy-2-propylphenoxy)ethoxy]ethoxy]ethoxy]propanoic acid semihydrate]",5.22,–
"CCCc1c(OCCCC(=O)O)ccc(C(C)=O)c1O [(CH2)3, 4-(4-Acetyl-3-hydroxy-2-propylphenoxy)butanoic acid]",5.00,–
"CCCc1c(OCCCCCCCC(=O)O)ccc(C(C)=O)c1O [(CH2)7, 8-(4-Acetyl-3-hydroxy-2-propylphenoxy)octanoic acid]",5.30,–
"CCCc1c(OCCCCCCCCCCC(=O)O)ccc(C(C)=O)c1O [(CH2)10, 11-(4-Acetyl-3-hydroxy-2-propylphenoxy)undecanoic acid]",5.00,–
"CCCc1c(OCC(=O)O)ccc(C(C)=O)c1O [CH2, (4-Acetyl-3-hydroxy-2-propylphenoxy)acetic acid]",5.00,–
